Data published in PMC5974779, “Prediction of Drug-Induced Hepatotoxicity Using Long-Term Stable Primary Hepatic 3D Spheroid Cultures in Chemically Defined Conditions” (Toxicological Sciences, 2018).
Where two headings read alike, the source gives them in different places.

Legend:
patients = details: phase I clinical trial, ref McKenzie et al., 1995, cited from earlier work
clinical DILI in man = details: cited from earlier work; for FDA (Severity): FDA drug labeling DILI concern; for Guo et al. (2005): ref Guo et al. (2005); for Xu et al. (2008): ref Xu et al. (2008)
[1] = cited from earlier work; for Extent of hepatic metabolism: ref DrugBank and Prescribers' Digital Reference database
[2] = therapeutic total cmax; ref PMID; cited from earlier work
[3] = tested on: rat, mouse, dog, and cynomolgus monkey; set-up: method as in Manning and Swartz, 1995; details: ref Manning and Swartz, 1995; cited from earlier work
[4] = tested on: primary human hepatocytes (PHH) 3D spheroids
PHH 2D sandwich cultures = details: cited from earlier work; for 2Dsw (Xu 2008) 100x: PHH 2D sandwich cultures, 100x Cmax, ref Xu 2008
[5] = tested on: PHH spheroids (hanging-drop); details: PHH hanging-drop spheroids, 100x Cmax; ref Proctor 2017; cited from earlier work
rats = tested on: rats; set-up: method as in McGill et al., 2012b; details: in vivo; ref McGill et al., 2012b; cited from earlier work
[6] = tested on: rhesus monkey primary hepatocyte 3D spheroids; assay: Animal hepatocyte spheroid hepatotoxicity (ATP viability, 14 days), rhesus monkey; format: cell-based; details: for hepatotoxicity evaluation in spheroids: rhesus monkey hepatocyte spheroids, 1×, 5×, 20× human cmax, 14 days
in vitro = details: human
[7] = tested on: Wistar rat primary hepatocyte 3D spheroids; assay: Animal hepatocyte spheroid hepatotoxicity (ATP viability, 14 days), Wistar rat; format: cell-based; details: for hepatotoxicity evaluation in spheroids: Wistar rat hepatocyte spheroids, 1×, 5×, 20× human cmax, 14 days
[8] = tested on: CD1 mouse primary hepatocyte 3D spheroids; assay: Animal hepatocyte spheroid hepatotoxicity (ATP viability, 14 days), CD1 mouse; format: cell-based; details: for hepatotoxicity evaluation in spheroids: CD1 mouse hepatocyte spheroids, 1×, 5×, 20× human cmax, 14 days
[9] = tested on: C57BL/6 mouse primary hepatocyte 3D spheroids; assay: Animal hepatocyte spheroid hepatotoxicity (ATP viability, 14 days), C57BL/6 (BL6) mouse; format: cell-based; details: for hepatotoxicity evaluation in spheroids: C57BL/6 mouse hepatocyte spheroids, 1×, 5×, 20× human cmax, 14 days
[10] = Animal hepatocyte spheroid hepatotoxicity (ATP viability, 14 days), minipig; format: cell-based, Gottingen minipig; details: Gottingen, primary minipig hepatocyte 3D spheroids; minipig spheroids, no indication of hepatotoxicity
[11] = tested on: Gottingen minipig primary hepatocyte 3D spheroids; assay: as above; format: cell-based; details: minipig hepatocyte spheroids, 1×, 5×, 20× human cmax, 14 days
[12] = DILI classification score, ref Suzuki et al. (2010)
[13] = FDA drug labeling DILI score, ref Chen et al., 2011
[14] = clinical DILI classification in man (POS/NEG)
[15] = clinical DILI classification used in this study, Supplementary Table 2, ref Chen et al., 2011, Guo et al., 2005, O'Brien et al., 2006, Sakatis et al., 2012, Suzuki et al., 2010, Xu et al., 2008
[16] = clinical DILI classification, Supplementary Table 1, ref Chen et al., 2011, Guo et al., 2005, O'Brien et al., 2006, Sakatis et al., 2012, Suzuki et al., 2010, Xu et al., 2008
[17] = reported pattern of liver damage, Supplementary Table 2, ref literature
[18] = human liver, ref Yoon et al., 2016

O=c1[nH]c(=O)n([C@@H]2O[C@H](CO)[C@@H](O)[C@@H]2F)cc1I [Fialuridine]
volunteers with lactic acidosis and acute liver failure (patients; few weeks after commencing therapy): 7 out of 15 | volunteers who died (patients; of the 7 with acute liver failure): 5 | Suzuki et al. (2010) (clinical DILI in man; [12]): 2 | FDA (Severity) (clinical DILI in man; ref Chen et al., 2011): most DILI concern | FDA (0-8) (clinical DILI in man; [13]): Discontinued | DILI in vivo (clinical DILI in man; [14]): POS | Classified as (clinical DILI in man; [15]): POS | DILI in vivo (clinical DILI in man; [16]): POS | O'Brien et al. (2003) (clinical DILI in man; clinical hepatotoxicity classification, ref O'Brien et al. (2003)): Severely | Type of DILI (clinical DILI in man; [17]): Hepatocellular injury, Cholestatic injury or Mixed hepatitis | Extent of hepatic metabolism [1]: Minimal | Cmax [2]: 0.64 µM | indications of hepatotoxicity in preclinical species [3]: did not show indications of hepatotoxicity | Chemically defined spheroids (this study) 20x [4]: Positive | hepatotoxicity evaluation in CD-spheroids [4]: successfully detect fialuridine hepatotoxicity at clinically relevant concentrations

CC(=O)Nc1ccc(O)cc1 [Acetaminophen]
fraction inactivated by sulfation or glucuronidation [1, 18]: around 90% | fraction metabolically activated by CYP2E1 and CYP3A4 to NAPQI [1, 18]: 5%–10% | Extent of hepatic metabolism [1]: Extensive | 2Dsw (Xu 2008) 100x (PHH 2D sandwich cultures): Positive | Hanging-drop spheroids (Proctor 2017) 100x [5]: Positive | acetaminophen-induced hepatotoxicity in rats (rats): resistant to acetaminophen-induced hepatotoxicity

Cc1ccc(-c2cc(C(F)(F)F)nn2-c2ccc(S(N)(=O)=O)cc2)cc1 [Celecoxib]
Classified as (clinical DILI in man; in vivo): POS | Clinical DILI class (panel heading of Figure 4) (clinical DILI in man; in vivo): High DILI concern | DILI in vivo (clinical DILI in man; in vivo): POS | FDA (0-8) (clinical DILI in man; in vivo): 3 | Suzuki et al. (2010) (clinical DILI in man; in vivo): 1 | Type of DILI (clinical DILI in man; in vivo): Hepatocellular injury or Cholestatic injury | Extent of hepatic metabolism [1]: Extensive | Cmax [2]: 2.55 µM | viability ([6]; monkey spheroids, 20× cmax): < 2 % of respective controls | viability at 14 days, 20 × cmax (in vitro): < 2% | viability ([7]; rat spheroids, 20× cmax): < 2 % of respective controls | Chemically defined spheroids (this study) 20x [4]: Positive | viability ([8]; CD1 mouse spheroids, 20× cmax): < 2 % of respective controls | viability ([9]; C57BL/6 mouse spheroids, 20× cmax): < 2 % of respective controls | viability at 14 days [10]: > 100%

CCc1nn(CCCN2CCN(c3cccc(Cl)c3)CC2)c(=O)n1CCOc1ccccc1 [Nefazodone]
Guo et al. (2005) (clinical DILI in man; DILI classification score): 3 | Suzuki et al. (2010) (clinical DILI in man; [12]): 3 | FDA (0-8) (clinical DILI in man; [13]): 8 | DILI in vivo (clinical DILI in man; [14]): POS | Classified as (clinical DILI in man; [15]): POS | DILI in vivo (clinical DILI in man; [16]): POS | Xu et al. (2008) (clinical DILI in man; clinical DILI classification): Positive | Sakatis et al. (2012) (clinical DILI in man; clinical hepatotoxicity classification, ref Sakatis et al. (2012)): Hepatotoxic | Type of DILI (clinical DILI in man; [17]): Hepatocellular injury | Clinical DILI classification (Figure 5) (clinical DILI in man; structural analogue pairs, Figure 5, ref Chen et al., 2011, Xu et al., 2008 and others): DILI positive | Extent of hepatic metabolism [1]: Extensive | Cmax [2]: 3.95 µM | hepatotoxicity evaluation in spheroids [6]: flagged as hepatotoxic | 2Dsw (Xu 2008) 100x (PHH 2D sandwich cultures): Positive | Hanging-drop spheroids (Proctor 2017) 100x [5]: Positive | hepatotoxicity evaluation in spheroids [7]: flagged as hepatotoxic | Chemically defined spheroids (this study) 20x [4]: Positive | hepatotoxicity evaluation in CD-spheroids ([4]; human, 14 days): severe toxicity at 5× and 20× of the therapeutic exposure levels | hepatotoxicity evaluation in spheroids [8]: flagged as hepatotoxic | hepatotoxicity evaluation in spheroids [9]: flagged as hepatotoxic | hepatotoxicity evaluation in spheroids [11]: flagged as hepatotoxic

CC(C)C(=O)Nc1ccc([N+](=O)[O-])c(C(F)(F)F)c1 [Flutamide]
Guo et al. (2005) (clinical DILI in man; DILI classification score): 3 | Suzuki et al. (2010) (clinical DILI in man; [12]): 2 | FDA (Severity) (clinical DILI in man; ref Chen et al., 2011): most DILI concern | FDA (0-8) (clinical DILI in man; [13]): 8 | DILI in vivo (clinical DILI in man; [14]): POS | Classified as (clinical DILI in man; [15]): POS | DILI in vivo (clinical DILI in man; [16]): POS | Xu et al. (2008) (clinical DILI in man; clinical DILI classification): Positive | O'Brien et al. (2003) (clinical DILI in man; in vivo): Severely | Sakatis et al. (2012) (clinical DILI in man; in vivo): Hepatotoxic | Type of DILI (clinical DILI in man; [17]): Hepatocellular injury, Cholestatic injury or Mixed hepatitis | Extent of hepatic metabolism [1]: Extensive | Cmax [2]: 5.43 µM | hepatotoxicity evaluation in spheroids [6]: flagged as hepatotoxic | hepatotoxicity detection in 2D sandwich cultures of PHH (PHH 2D sandwich cultures; 100× cmax, 24 h, high content imaging, ref Xu et al., 2008): liver toxicity was not recognized | 2Dsw (Xu 2008) 100x (PHH 2D sandwich cultures): Negative | Hanging-drop spheroids (Proctor 2017) 100x [5]: Positive | hepatotoxicity evaluation in spheroids [7]: flagged as hepatotoxic | Chemically defined spheroids (this study) 20x [4]: Positive | hepatotoxicity evaluation in spheroids [8]: flagged as hepatotoxic | hepatotoxicity evaluation in spheroids [9]: flagged as hepatotoxic | hepatotoxicity evaluation in spheroids [11]: flagged as hepatotoxic
